Where two headings read alike, the source gives them in different places.
How the values were obtained:
P-glycoprotein (P-gp) = biological target: T1, P-glycoprotein (P-gp) (Homo sapiens, UniProt P08183); assay: Bidirectional transport of rhodamine123 through Caco-2 monolayers co-incubated with antimalarials (P-gp inhibitory properties); format: in vitro ADME
T1 construct: In-vitro Caco-2 cell monolayers were used here as a model for potential drug absorption related problems and P-gp mediated transport of drugs; endogenous in cells; host or cells: Caco-2 (human colon carcinoma, ATCC)
T1 sequence (P08183 whole entry): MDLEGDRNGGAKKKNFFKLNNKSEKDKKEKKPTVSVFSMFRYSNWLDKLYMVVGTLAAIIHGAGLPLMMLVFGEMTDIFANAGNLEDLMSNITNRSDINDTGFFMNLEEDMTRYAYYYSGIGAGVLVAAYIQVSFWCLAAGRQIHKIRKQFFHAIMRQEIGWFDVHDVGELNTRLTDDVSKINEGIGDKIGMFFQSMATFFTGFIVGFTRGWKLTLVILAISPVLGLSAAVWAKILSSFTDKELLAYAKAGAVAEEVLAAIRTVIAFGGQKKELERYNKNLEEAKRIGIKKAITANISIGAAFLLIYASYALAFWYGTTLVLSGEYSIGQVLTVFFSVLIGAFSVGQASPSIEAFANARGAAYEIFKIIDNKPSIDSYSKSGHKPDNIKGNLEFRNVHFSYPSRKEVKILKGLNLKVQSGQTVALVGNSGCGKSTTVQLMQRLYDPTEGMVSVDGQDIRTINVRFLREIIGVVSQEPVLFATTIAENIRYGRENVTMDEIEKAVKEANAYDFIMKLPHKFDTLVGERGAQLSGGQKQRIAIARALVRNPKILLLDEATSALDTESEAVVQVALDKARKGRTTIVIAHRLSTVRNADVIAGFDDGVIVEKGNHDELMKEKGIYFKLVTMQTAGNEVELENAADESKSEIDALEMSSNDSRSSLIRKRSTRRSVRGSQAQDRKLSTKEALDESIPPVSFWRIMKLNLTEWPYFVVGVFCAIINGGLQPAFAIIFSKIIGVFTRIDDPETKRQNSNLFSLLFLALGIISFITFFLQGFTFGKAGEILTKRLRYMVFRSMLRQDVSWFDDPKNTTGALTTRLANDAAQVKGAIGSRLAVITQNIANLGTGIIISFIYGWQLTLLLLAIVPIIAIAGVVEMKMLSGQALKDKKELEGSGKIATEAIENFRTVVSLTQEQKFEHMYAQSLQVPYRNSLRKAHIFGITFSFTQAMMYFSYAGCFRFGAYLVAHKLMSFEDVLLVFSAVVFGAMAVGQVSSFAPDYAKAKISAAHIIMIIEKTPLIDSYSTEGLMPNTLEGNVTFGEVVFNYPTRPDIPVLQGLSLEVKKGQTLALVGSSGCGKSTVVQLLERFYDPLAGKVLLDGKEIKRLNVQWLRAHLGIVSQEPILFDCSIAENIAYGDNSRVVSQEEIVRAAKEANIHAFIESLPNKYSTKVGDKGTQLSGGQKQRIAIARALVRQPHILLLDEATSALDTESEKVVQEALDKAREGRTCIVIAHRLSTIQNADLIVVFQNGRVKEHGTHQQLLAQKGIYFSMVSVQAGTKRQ
Procedure: The Caco-2 cells were seeded on 0.6 cm^2 […] Millipore PCF™ filter inserts at the cell density of 65,000 cells/cm^2 as done previously in the lab. Briefly, the cells were grown for 21–24 days to allow full maturation and formation of tight monolayers. The initial experiments were conducted in mid-40s passage cells and repeated in early 80s passage Caco-2 cells. The Trans epithelial electrical resistance (TEER) was measured immediately before and after the experiment using an epithelial voltage/ohm meter and an ENDOHM 12 chamber (World precision instruments, Sarasota, FL). TEER values were measured both before and after the study with readings above 300 Ω.cm^2 considered as acceptable for tight junctions. […] In order to maintain equivalent transport medium (HBSS/HBSS with inhibitor) level both outside and inside the chambers, 300 μL was used as medium in the apical chambers and 600 μL in the basolateral chambers. […] Drugs were co-incubated with MRCP, BCRP and ATP hydrolysis blockers to determine the involvement of other efflux mechanisms. Prior to the experiment, the transport medium, HBSS or HBSS with P-gp inhibitors were pre-incubated with the cells for 30 minutes. Following incubation, inserts were placed in new well plates and donor chamber is replaced with drug or drug with inhibitor and the receiver chamber with blank HBSS or HBSS with inhibitor. Transport medium was collected from the receiver chamber after stirring at time intervals of 30, 60, 90 and 120 minutes and was replaced with the same volume of fresh HBSS, or HBSS with inhibitor, when P-gp inhibitors were used in the study. At the end of the experiment 100 μL of medium was removed from the donor chamber in addition to medium collected from the receiver chamber during the study. The cells were then washed thoroughly in cold (4°C) PBS and cell membranes attached to the inserts were sonicated for 10 minutes in a sonicating water bath and centrifuged at 10,000 g for 10 minutes. Supernatant was frozen at -80°C until assayed. The Papp values of three well plates were determined using methods modified from Artursson’s group as described by Crowe and Lemaire.
CL.vol=Aa/{[Cd0×Vd−[Aa+(Ca×Vs)]−(Ac)×n/nfin]/Vd}
CL.vol = clearance volume (mL), n = time (min), Aa = amount in acceptor compartment at time n (pmols), Cd0 = concentration in donor compartment at time zero (nM), Vd = volume of the donor compartment (mL), Ca = concentration in acceptor compartment at the previous time point (nM), Vs = sample volume of previous time point (mL), Ac = amount of compound associated with the cells (pmol), Nfin = final time point (min). Papp = Apparent permeability (cm/sec) Rate of clearance (mL/min)=CL.vol / n Papp (cm/sec)=Rate of clearance / Surface area (cm^2)
The cleared volume was plotted against time and the slope of the regression line was divided by the surface area to obtain the Papp values. […] Mean Papp for Bas-Ap direction was divided by the Ap-Bas direction to obtain the efflux ratio and values above two were considered as drugs having true efflux transport.

[1] = parameters: method as in PMID 17337512; settings: monkeys ref 14; cited from earlier work
[2] = Bidirectional transport (Papp, efflux ratio) of antimalarials through Caco-2 cell monolayers; format: in vitro ADME, human; settings: human; for Papp at 120 min: Caco-2, Caco-2 monolayers
Procedure: (§1) The initial experiments were conducted in mid-40s passage cells and repeated in early 80s passage Caco-2 cells. […] In order to maintain equivalent transport medium (HBSS/HBSS with inhibitor) level both outside and inside the chambers, 300 μL was used as medium in the apical chambers and 600 μL in the basolateral chambers. […] Drugs were co-incubated with MRCP, BCRP and ATP hydrolysis blockers to determine the involvement of other efflux mechanisms. Prior to the experiment, the transport medium, HBSS or HBSS with P-gp inhibitors were pre-incubated with the cells for 30 minutes. Following incubation, inserts were placed in new well plates and donor chamber is replaced with drug or drug with inhibitor and the receiver chamber with blank HBSS or HBSS with inhibitor. Transport medium was collected from the receiver chamber after stirring at time intervals of 30, 60, 90 and 120 minutes and was replaced with the same volume of fresh HBSS, or HBSS with inhibitor, when P-gp inhibitors were used in the study. At the end of the experiment 100 μL of medium was removed from the donor chamber in addition to medium collected from the receiver chamber during the study. The cells were then washed thoroughly in cold (4°C) PBS and cell membranes attached to the inserts were sonicated for 10 minutes in a sonicating water bath and centrifuged at 10,000 g for 10 minutes. Supernatant was frozen at -80°C until assayed. […] CL.vol=[…].vol = clearance volume (mL), n = time (min), Aa = amount in acceptor compartment at time n (pmols), Cd0 = concentration in donor compartment at time zero (nM), Vd = volume of the donor compartment (mL), Ca = concentration in acceptor compartment at the previous time point (nM), Vs = sample volume of previous time point (mL), Ac = amount of compound associated with the cells (pmol), Nfin = final time point (min). […] The cleared volume was plotted against time and the slope of the regression line was divided by the surface area to obtain the Papp values. […] The method from Davis and colleagues was adopted with slight modifications. Separations were performed using an Apollo C18 (5 μm, 4.6x150mm) column attached to a matched guard column (5 μm, 4.6x5.5 mm). […] The injection volume was 40 μL and column oven was maintained at 35°C. The analytes were detected at 222 nm and the retention time was 5.6 minutes. Assay developed by Pussard and co-workers were used and slight modifications were done to adjust laboratory conditions. Separation was done using a Prevail C18 (3 μm, 4.6x150mm) column attached to a Direct-connect^TM universal column prefilter. The mobile phase consisted of 20 mM (w/v) KH2PO4 in deionized water at pH 3.0 and acetonitrile (82:18) v/v. […] The injection volume was 40 μL and column oven was maintained at 30°C. The analytes were detected at 343 nm with a retention time of 2.4 minutes. […] Separations were performed using an Apollo C18 (5 μm, 4.6x150mm) column attached to matched guard column (5 μm, 4.6x5.5mm). […] The injection volume was 40 μL and column oven was maintained at 30°C. The analytes were detected at 660 nm with a retention time of 3.8 minutes. A 40 μL sample was spiked with 5 μL 0.5 mM artemisinin internal standard. […] The pipettor was adjusted to the maximum volume (100 μL). […] Pre-treated samples were loaded into the tips by gently aspirating and discarding into the same vial. The process was repeated 10 times in order to increase binding efficiency of drugs to the OMIX 96 C4 matrix. […] The LC-MS method described by […] and co-workers were modified to suit the LC-MS-MS conditions. […] Wexford, Ireland) at 40°C. […] Quantitation was performed in multiple reactions monitoring, MRM mode, using DUIS (ESI^+ and APCI^+) ion sources. […] The optimized mass spectra were acquired with an interface voltage of 4.5 kV, a detector voltage of 1.0 kV, a heat block temperature of 500°C and a desolvation temperature of 160°C.

Caco-2 cell monolayers = assay: as above; format: in vitro ADME, human
Procedure: as §1

In the case of `C[C@H]1[C@H](N2CCS(=O)(=O)CC2)O[C@@H]2O[C@@]3(C)CC[C@H]4[C@H](C)CC[C@@H]1[C@@]24OO3` [AM, artemisone], the P-gp inhibitory properties (P-glycoprotein (P-gp); at 100 μM) is listed as “did not exhibit P-gp inhibitory properties”, the P-gp inhibitory properties (P-glycoprotein (P-gp); at test concentrations) is listed as “did not exhibit P-gp inhibitory properties” and the in-vivo bioavailability [1] is listed as “higher in-vivo bioavailability compared to artesunate”. It also gave a Papp at 120 min ([2]; drug alone, read-out: Ap-Bas directional Papp, range over concentrations tested) of 37 to 60 ×10⁻⁶ cm/s, a Papp at 120 min ([2]; drug alone, read-out: Bas-Ap directional Papp, range over concentrations tested) of 35 to 47 ×10⁻⁶ cm/s and a Papp at 120 min ([2]; read-out: permeability across the gastrointestinal epithelium (class)) of over 25 ×10⁻⁶ cm/s. For the same compound, the Papp at 120 min ([2]; summary in abstract, methylene blue depending on the direction of transport, read-out: permeability) was about 50 ×10⁻⁶ cm/s, the efflux ratio at 120 min, 10 µM ([2]; Caco-2, Conc (μM) + inhibitor (μM): 10, Bas-Ap divided by Ap-Bas) was 0.8 and the Papp at 120 min, 10 µM ([2]; Caco-2, Conc (μM) + inhibitor (μM): 10, first-named drug measured, read-out: Papp Ap-Bas) was 59.6 ± 4.2 ×10⁻⁶ cm/s. For the same compound, the Papp B→A at 120 min, 10 µM ([2]; Caco-2, Conc (μM) + inhibitor (μM): 10, first-named drug measured, read-out: Papp Bas-Ap) was 46.9 ± 8.5 ×10⁻⁶ cm/s, the efflux ratio at 120 min, 20 µM ([2]; Caco-2, Conc (μM) + inhibitor (μM): 20, Bas-Ap divided by Ap-Bas) was 0.9 and the Papp at 120 min, 20 µM ([2]; Caco-2, Conc (μM) + inhibitor (μM): 20, first-named drug measured, read-out: Papp Ap-Bas) was 37 ± 4.7 ×10⁻⁶ cm/s. The Papp B→A at 120 min, 20 µM ([2]; Caco-2, Conc (μM) + inhibitor (μM): 20, first-named drug measured, read-out: Papp Bas-Ap) was 34.7 ± 2.7 ×10⁻⁶ cm/s, the Net flow direction (Caco-2 cell monolayers; Conc (μM) + inhibitor (μM): 10) was “Diffusion (0.25)” and the Net flow direction (Caco-2 cell monolayers; Conc (μM) + inhibitor (μM): 20) was “Diffusion (0.69)”. For the same compound, the “drug absorption predicted from Papp” value (Caco-2 cell monolayers; based on FDA biopharmaceutical classification system) was 100%.

Source: publication PMC4821601, “The Interactions of P-Glycoprotein with Antimalarial Drugs, Including Substrate Affinity, Inhibition and Regulation” (PLoS ONE, 2016)
